According to ChEMBL document CHEMBL3885881, “DrugMatrix”:

Species: Rattus norvegicus
Assay: DrugMatrix - Regimen: Daily Repeat
Assay type: toxicity, organism-based, Sprague-Dawley
Parameters: regimen Daily Repeat, gender Male, age 6-8 weeks
Details: in vivo, sc, […], route mini-PUMP - SUBCUTANEOUS, dose 0.065 mg/Kg, dose level High, vehicle 100 % SALINE; for ABSOLUTE BASOPHIL / ABSOLUTE EOSINOPHIL / ABSOLUTE LYMPHOCYTE / ABSOLUTE MONOCYTE / ABSOLUTE SEGMENTED NEUTROPHIL / BASOPHIL / EOSINOPHIL / ERYTHROCYTE COUNT / HEMATOCRIT / HEMOGLOBIN / LEUKOCYTE COUNT / LYMPHOCYTE / MEAN CORPUSCULAR HEMOGLOBIN / MEAN CORPUSCULAR HEMOGLOBIN CONCENTRATION / MEAN CORPUSCULAR VOLUME / MONOCYTE / NEUTROPHIL / NUCLEATED RED BLOOD CELLS / PLATELET COUNT: tissue Blood; for ALANINE AMINOTRANSFERASE / ALBUMIN / ALKALINE PHOSPHATASE / ASPARTATE AMINOTRANSFERASE / BLOOD UREA NITROGEN / CARBON DIOXIDE / CHLORIDE / CHOLESTEROL / CREATININE / GLUCOSE / LACTATE DEHYDROGENASE / LIPASE / PHOSPHORUS / POTASSIUM / SODIUM / TOTAL BILIRUBIN / TOTAL PROTEIN / URIC ACID: tissue Plasma

Which results are given for `C[C@]12CCC(=O)C=C1CC[C@@H]1[C@@H]2[C@@H](O)C[C@]2(C=O)[C@@H](C(=O)CO)CC[C@@H]12` [ALDOSTERONE]?
ABSOLUTE BASOPHIL (72 h, time 3 day): 0 CELLS/uL; ABSOLUTE EOSINOPHIL (72 h, time 3 day): 0 CELLS/uL; ABSOLUTE LYMPHOCYTE (72 h, time 3 day): 11286 CELLS/uL; ABSOLUTE MONOCYTE (72 h, time 3 day): 180.67 CELLS/uL; ABSOLUTE SEGMENTED NEUTROPHIL (72 h, time 3 day): 1866.67 CELLS/uL; BASOPHIL (72 h, time 3 day): 0%; EOSINOPHIL (72 h, time 3 day): 0%; ERYTHROCYTE COUNT (72 h, time 3 day): 5.69 x10E6/uL; HEMATOCRIT (72 h, time 3 day): 34.17%; HEMOGLOBIN (72 h, time 3 day): 12.73 G/DL; LEUKOCYTE COUNT (72 h, time 3 day): 13.33 x10E3/uL; LYMPHOCYTE (72 h, time 3 day): 84.67%; MEAN CORPUSCULAR HEMOGLOBIN (72 h, time 3 day): 22.37 pg; MEAN CORPUSCULAR HEMOGLOBIN CONCENTRATION (72 h, time 3 day): 37.3 G/DL; MEAN CORPUSCULAR VOLUME (72 h, time 3 day): 60.03 fL; MONOCYTE (72 h, time 3 day): 1.33%; NEUTROPHIL (72 h, time 3 day): 14%; NUCLEATED RED BLOOD CELLS (72 h, time 3 day): 0.33 /100WBC; PLATELET COUNT (72 h, time 3 day): 1067.67 x10E3/uL; ALANINE AMINOTRANSFERASE (72 h, time 3 day): 52.33 u/L; ALBUMIN (72 h, time 3 day): 3.8 G/DL; ALKALINE PHOSPHATASE (72 h, time 3 day): 293.67 u/L; ASPARTATE AMINOTRANSFERASE (72 h, time 3 day): 90 u/L; BLOOD UREA NITROGEN (72 h, time 3 day): 15.67 mg/dL; CARBON DIOXIDE (72 h, time 3 day): 32 mmol/L; CHLORIDE (72 h, time 3 day): 100 MEQ/L; CHOLESTEROL (72 h, time 3 day): 66.33 mg/dL; CREATININE (72 h, time 3 day): 0.14 mg/dL; GLUCOSE (72 h, time 3 day): 146 mg/dL; LACTATE DEHYDROGENASE (72 h, time 3 day): 443 u/L; LIPASE (72 h, time 3 day): 9.33 u/L; PHOSPHORUS (72 h, time 3 day): 11.27 mg/dL; POTASSIUM (72 h, time 3 day): 5.07 MEQ/L; SODIUM (72 h, time 3 day): 146.93 MEQ/L; TOTAL BILIRUBIN (72 h, time 3 day): 0.2 mg/dL; TOTAL PROTEIN (72 h, time 3 day): 5.73 G/DL; URIC ACID (72 h, time 3 day): 1.5 mg/dL; ABSOLUTE BASOPHIL (120 h, time 5 day): 0 CELLS/uL; ABSOLUTE EOSINOPHIL (120 h, time 5 day): 69 CELLS/uL; ABSOLUTE LYMPHOCYTE (120 h, time 5 day): 17030 CELLS/uL; ABSOLUTE MONOCYTE (120 h, time 5 day): 489 CELLS/uL; ABSOLUTE SEGMENTED NEUTROPHIL (120 h, time 5 day): 1812 CELLS/uL; BASOPHIL (120 h, time 5 day): 0%; EOSINOPHIL (120 h, time 5 day): 0.33%; ERYTHROCYTE COUNT (120 h, time 5 day): 5.8 x10E6/uL; HEMATOCRIT (120 h, time 5 day): 34.77%; HEMOGLOBIN (120 h, time 5 day): 12.97 G/DL; LEUKOCYTE COUNT (120 h, time 5 day): 19.4 x10E3/uL; LYMPHOCYTE (120 h, time 5 day): 87.33%; MEAN CORPUSCULAR HEMOGLOBIN (120 h, time 5 day): 22.4 pg; MEAN CORPUSCULAR HEMOGLOBIN CONCENTRATION (120 h, time 5 day): 37.3 G/DL; MEAN CORPUSCULAR VOLUME (120 h, time 5 day): 60.03 fL; MONOCYTE (120 h, time 5 day): 2.67%; NEUTROPHIL (120 h, time 5 day): 9.67%; NUCLEATED RED BLOOD CELLS (120 h, time 5 day): 0 /100WBC; PLATELET COUNT (120 h, time 5 day): 1473 x10E3/uL; ALANINE AMINOTRANSFERASE (120 h, time 5 day): 47.67 u/L; ALBUMIN (120 h, time 5 day): 3.77 G/DL; ALKALINE PHOSPHATASE (120 h, time 5 day): 252 u/L; ASPARTATE AMINOTRANSFERASE (120 h, time 5 day): 83 u/L; BLOOD UREA NITROGEN (120 h, time 5 day): 11.33 mg/dL; CARBON DIOXIDE (120 h, time 5 day): 36.33 mmol/L; CHLORIDE (120 h, time 5 day): 96.67 MEQ/L; CHOLESTEROL (120 h, time 5 day): 64.33 mg/dL; CREATININE (120 h, time 5 day): 0.13 mg/dL; GLUCOSE (120 h, time 5 day): 142.67 mg/dL; LACTATE DEHYDROGENASE (120 h, time 5 day): 335 u/L; LIPASE (120 h, time 5 day): 9 u/L; PHOSPHORUS (120 h, time 5 day): 11.97 mg/dL; POTASSIUM (120 h, time 5 day): 5.4 MEQ/L; SODIUM (120 h, time 5 day): 147.3 MEQ/L; TOTAL BILIRUBIN (120 h, time 5 day): 0.17 mg/dL; TOTAL PROTEIN (120 h, time 5 day): 5.53 G/DL; URIC ACID (120 h, time 5 day): 1.93 mg/dL; ABSOLUTE BASOPHIL (time 14 day): 0 CELLS/uL; ABSOLUTE EOSINOPHIL (time 14 day): 65.4 CELLS/uL; ABSOLUTE LYMPHOCYTE (time 14 day): 13364.4 CELLS/uL; ABSOLUTE MONOCYTE (time 14 day): 314 CELLS/uL; ABSOLUTE SEGMENTED NEUTROPHIL (time 14 day): 2076.2 CELLS/uL; BASOPHIL (time 14 day): 0%; EOSINOPHIL (time 14 day): 0.6%; ERYTHROCYTE COUNT (time 14 day): 6.35 x10E6/uL; HEMATOCRIT (time 14 day): 37.42%; HEMOGLOBIN (time 14 day): 13.62 G/DL; LEUKOCYTE COUNT (time 14 day): 15.82 x10E3/uL; LYMPHOCYTE (time 14 day): 84%; MEAN CORPUSCULAR HEMOGLOBIN (time 14 day): 21.48 pg; MEAN CORPUSCULAR HEMOGLOBIN CONCENTRATION (time 14 day): 36.4 G/DL; MEAN CORPUSCULAR VOLUME (time 14 day): 59.08 fL; MONOCYTE (time 14 day): 2%; NEUTROPHIL (time 14 day): 13.4%; NUCLEATED RED BLOOD CELLS (time 14 day): 0 /100WBC; PLATELET COUNT (time 14 day): 1043.2 x10E3/uL; ALANINE AMINOTRANSFERASE (time 14 day): 55.8 u/L; ALBUMIN (time 14 day): 4.14 G/DL; ALKALINE PHOSPHATASE (time 14 day): 346.6 u/L; ASPARTATE AMINOTRANSFERASE (time 14 day): 86.8 u/L; BLOOD UREA NITROGEN (time 14 day): 12.2 mg/dL; CARBON DIOXIDE (time 14 day): 43 mmol/L; CHLORIDE (time 14 day): 94.2 MEQ/L; CHOLESTEROL (time 14 day): 64.6 mg/dL; CREATININE (time 14 day): 0.17 mg/dL; GLUCOSE (time 14 day): 150.2 mg/dL; LACTATE DEHYDROGENASE (time 14 day): 88.6 u/L; LIPASE (time 14 day): 9.2 u/L; PHOSPHORUS (time 14 day): 11.36 mg/dL; POTASSIUM (time 14 day): 4.4 MEQ/L; SODIUM (time 14 day): 147.78 MEQ/L; TOTAL BILIRUBIN (time 14 day): 0.14 mg/dL; TOTAL PROTEIN (time 14 day): 6.2 G/DL; URIC ACID (time 14 day): 1.72 mg/dL
